# From PMC10361003 (Journal of Enzyme Inhibition and Medicinal Chemistry, 2023)
# Biological target: T1, aldose reductase (Homo sapiens, UniProt P15121)
# Assay: In vitro enzyme inhibitory assay against human aldose reductase
# Assay type: biochemical
# Conditions: AR inhibition, Epalrestat as positive control
row,IC50 [nM],Compound
1,490,"O=C(CN1C(=O)S/C(=C\c2ccc(Br)cc2)C1=O)c1ccc([N+](=O)[O-])cc1 [Compound 5c, (Z)-5-(4-bromobenzylidene)-3-(2-(4-nitrophenyl)-2-oxoethyl)thiazolidine-2,4-dione]"
2,570,"O=C(CN1C(=O)S/C(=C\c2ccc(F)cc2)C1=O)c1ccc([N+](=O)[O-])cc1 [Compound 5d, (Z)-5-(4-fluorobenzylidene)-3-(2-(4-nitrophenyl)-2-oxoethyl)thiazolidine-2,4-dione]"
3,550,"Cc1ccc(/C=C2\SC(=O)N(CC(=O)c3ccc([N+](=O)[O-])cc3)C2=O)cc1 [Compound 5e, (Z)-5-(4-methylbenzylidene)-3-(2-(4-nitrophenyl)-2-oxoethyl)thiazolidine-2,4-dione]"
4,1980,"O=C1S/C(=C\c2ccc([N+](=O)[O-])cc2)C(=O)N1Cc1nc2ccccc2s1 [Compound 8a, (Z)-3-(benzo[d]thiazol-2-ylmethyl)-5-(4-nitrobenzylidene)thiazolidine-2,4-dione]"
5,160,"O=C1S/C(=C\c2ccc(Cl)cc2)C(=O)N1Cc1nc2ccccc2s1 [Compound 8b, (Z)-3-(benzo[d]thiazol-2-ylmethyl)-5-(4-chlorobenzylidene)thiazolidine-2,4-dione]"
6,210,"O=C1S/C(=C\c2ccc(Br)cc2)C(=O)N1Cc1nc2ccccc2s1 [Compound 8c, (Z)-3-(benzo[d]thiazol-2-ylmethyl)-5-(4-bromobenzylidene)thiazolidine-2,4-dione]"
7,330,"O=C1S/C(=C\c2ccc(F)cc2)C(=O)N1Cc1nc2ccccc2s1 [Compound 8d, (Z)-3-(benzo[d]thiazol-2-ylmethyl)-5-(4-fluorobenzylidene)thiazolidine-2,4-dione]"
8,290,"Cc1ccc(/C=C2\SC(=O)N(Cc3nc4ccccc4s3)C2=O)cc1 [Compound 8e, (Z)-3-(benzo[d]thiazol-2-ylmethyl)-5-(4-methylbenzylidene)thiazolidine-2,4-dione]"
9,940,"COc1ccc(/C=C2\SC(=O)N(Cc3nc4ccccc4s3)C2=O)cc1 [Compound 8f, (Z)-3-(benzo[d]thiazol-2-ylmethyl)-5-(4-methoxybenzylidene)thiazolidine-2,4-dione]"
10,450,"COc1ccc(/C=C2\SC(=O)N(Cc3nc4ccccc4s3)C2=O)cc1OC [Compound 8h, (Z)-3-(benzo[d]thiazol-2-ylmethyl)-5-(3,4-dimethoxybenzylidene)thiazolidine-2,4-dione]"

# Second part, the compound before the results:
row,Compound,IC50 [nM]
1,"O=C(CN1C(=O)S/C(=C\c2ccc([N+](=O)[O-])cc2)C1=O)c1ccc([N+](=O)[O-])cc1 [Compound 5a, (Z)-5-(4-nitrobenzylidene)-3-(2-(4-nitrophenyl)-2-oxoethyl)thiazolidine-2,4-dione]",220
2,"O=C(CN1C(=O)S/C(=C\c2ccc(Cl)cc2)C1=O)c1ccc([N+](=O)[O-])cc1 [Compound 5b, (Z)-5-(4-chlorobenzylidene)-3-(2-(4-nitrophenyl)-2-oxoethyl)thiazolidine-2,4-dione]",460
3,"COc1ccc(/C=C2\SC(=O)N(CC(=O)c3ccc([N+](=O)[O-])cc3)C2=O)cc1 [Compound 5f, (Z)-5-(4-methoxybenzylidene)-3-(2-(4-nitrophenyl)-2-oxoethyl)thiazolidine-2,4-dione]",280
4,"COc1cc(/C=C2\SC(=O)N(CC(=O)c3ccc([N+](=O)[O-])cc3)C2=O)cc(OC)c1OC [Compound 5g, (Z)-3-(2-(4-nitrophenyl)-2-oxoethyl)-5-(3,4,5-trimethoxybenzylidene)thiazolidine-2,4-dione]",720
5,"O=C(CN1C(=O)S/C(=C\c2cccc([N+](=O)[O-])c2)C1=O)c1ccc([N+](=O)[O-])cc1 [Compound 5h, (Z)-5-(3-nitrobenzylidene)-3-(2-(4-nitrophenyl)-2-oxoethyl)thiazolidine-2,4-dione]",510
6,"O=C(CN1C(=O)S/C(=C\c2cccc(Br)c2)C1=O)c1ccc([N+](=O)[O-])cc1 [Compound 5k, (Z)-5-(3-bromobenzylidene)-3-(2-(4-nitrophenyl)-2-oxoethyl)thiazolidine-2,4-dione]",410
7,"COc1cc(/C=C2\SC(=O)N(Cc3nc4ccccc4s3)C2=O)cc(OC)c1OC [Compound 8g, (Z)-3-(benzo[d]thiazol-2-ylmethyl)-5-(3,4,5-trimethoxybenzylidene)thiazolidine-2,4-dione]",270

# Biological target: T1, aldose reductase
# Assay: not given
# Conditions: at 0.5 IC50
effect on Km,effect on Vmax,Compound
slight reduction,significant reduction,"O=C1S/C(=C\c2ccc(Cl)cc2)C(=O)N1Cc1nc2ccccc2s1 [Compound 8b, (Z)-3-(benzo[d]thiazol-2-ylmethyl)-5-(4-chlorobenzylidene)thiazolidine-2,4-dione]"

# Same assay, conditions: at concentrations equal to IC50 and double of IC50
row,effect on Km and Vmax,Compound
1,decreased significantly,"O=C1S/C(=C\c2ccc(Cl)cc2)C(=O)N1Cc1nc2ccccc2s1 [Compound 8b, (Z)-3-(benzo[d]thiazol-2-ylmethyl)-5-(4-chlorobenzylidene)thiazolidine-2,4-dione]"

# Tested on: AR
# Assay: not given
# Conditions: read-out: IC50 (reported AR inhibition); Zopolrestat; cited from earlier work
row,Compound,IC50 [nM]
1,"O=C(O)Cc1nn(Cc2nc3cc(C(F)(F)F)ccc3s2)c(=O)c2ccccc12 [Zopolrestat, 3,4-dihydro-4-oxo-3-[[5-(trifluoromethyl)-2-benzothiazolyl]methyl]-1-phthalazineacetic acid]",3.1
